The text below walks through data of ChEMBL document CHEMBL2203079, “Virtual screening and QSAR study of some pyrrolidine derivatives as α-mannosidase inhibitors for binding feature analysis” (Bioorg Med Chem, 2012).

For test [1], the target named is T1, Endoplasmic reticulum mannosyl-oligosaccharide 1,2-alpha-mannosidase (Homo sapiens, UniProt Q9UKM7).
T1 sequence (Q9UKM7 whole entry): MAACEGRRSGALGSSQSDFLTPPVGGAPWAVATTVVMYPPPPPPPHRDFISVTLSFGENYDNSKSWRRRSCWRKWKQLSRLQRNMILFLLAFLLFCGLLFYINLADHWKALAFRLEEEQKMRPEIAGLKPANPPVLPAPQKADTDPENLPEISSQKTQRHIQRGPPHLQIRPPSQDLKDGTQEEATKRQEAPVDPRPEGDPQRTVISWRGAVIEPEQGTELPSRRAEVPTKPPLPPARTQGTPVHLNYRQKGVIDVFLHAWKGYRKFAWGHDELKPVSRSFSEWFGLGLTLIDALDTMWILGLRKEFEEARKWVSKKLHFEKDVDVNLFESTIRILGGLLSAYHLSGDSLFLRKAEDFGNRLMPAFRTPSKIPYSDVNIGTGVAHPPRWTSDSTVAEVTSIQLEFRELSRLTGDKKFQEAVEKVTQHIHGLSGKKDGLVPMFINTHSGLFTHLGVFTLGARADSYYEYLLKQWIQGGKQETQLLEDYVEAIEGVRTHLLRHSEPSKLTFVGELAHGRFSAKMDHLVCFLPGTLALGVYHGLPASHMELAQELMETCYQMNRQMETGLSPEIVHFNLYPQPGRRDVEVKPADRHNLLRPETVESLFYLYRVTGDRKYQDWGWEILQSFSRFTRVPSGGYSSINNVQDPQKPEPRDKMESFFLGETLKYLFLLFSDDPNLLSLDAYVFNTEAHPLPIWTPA
Description: Inhibition of human ER alpha mannosidase 1.

Another test concerns the target T2, Alpha-mannosidase 2 (Homo sapiens, UniProt Q16706).
T2 sequence (Q16706 whole entry): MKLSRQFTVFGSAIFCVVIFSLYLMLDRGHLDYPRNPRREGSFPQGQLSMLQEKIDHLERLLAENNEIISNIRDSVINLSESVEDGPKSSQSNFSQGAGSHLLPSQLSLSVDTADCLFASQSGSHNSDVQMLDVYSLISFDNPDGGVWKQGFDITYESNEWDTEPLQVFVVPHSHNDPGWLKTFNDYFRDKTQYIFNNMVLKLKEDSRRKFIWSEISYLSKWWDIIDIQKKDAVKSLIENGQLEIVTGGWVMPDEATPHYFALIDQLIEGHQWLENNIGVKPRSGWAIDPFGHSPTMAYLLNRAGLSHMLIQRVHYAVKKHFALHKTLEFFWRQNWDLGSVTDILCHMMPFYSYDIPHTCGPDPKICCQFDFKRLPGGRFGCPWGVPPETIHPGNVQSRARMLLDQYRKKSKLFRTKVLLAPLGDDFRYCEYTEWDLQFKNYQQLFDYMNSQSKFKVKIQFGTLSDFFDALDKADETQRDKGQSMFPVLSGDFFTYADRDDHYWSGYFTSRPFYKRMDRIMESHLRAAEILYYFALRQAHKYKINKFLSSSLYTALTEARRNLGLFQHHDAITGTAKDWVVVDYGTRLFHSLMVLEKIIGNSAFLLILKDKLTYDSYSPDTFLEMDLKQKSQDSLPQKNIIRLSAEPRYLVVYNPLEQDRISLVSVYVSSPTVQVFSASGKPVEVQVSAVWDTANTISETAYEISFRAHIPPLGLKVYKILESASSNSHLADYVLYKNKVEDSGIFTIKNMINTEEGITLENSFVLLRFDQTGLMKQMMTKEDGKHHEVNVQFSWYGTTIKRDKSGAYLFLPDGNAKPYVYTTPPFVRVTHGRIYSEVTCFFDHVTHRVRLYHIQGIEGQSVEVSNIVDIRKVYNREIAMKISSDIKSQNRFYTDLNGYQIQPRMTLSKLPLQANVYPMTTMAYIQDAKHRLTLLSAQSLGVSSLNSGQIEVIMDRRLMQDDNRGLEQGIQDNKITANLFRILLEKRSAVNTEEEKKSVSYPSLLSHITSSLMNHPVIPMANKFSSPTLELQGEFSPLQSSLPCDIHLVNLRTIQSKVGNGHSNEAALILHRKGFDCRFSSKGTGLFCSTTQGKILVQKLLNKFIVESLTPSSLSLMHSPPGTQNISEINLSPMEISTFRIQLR
Description: Inhibition of human golgi alpha mannosidase 2.

The next test relates to Prunus dulcis. Description: Inhibition of almond alpha-mannosidase assessed as p-nitrophenylglycoside substrate hydrolysis at 1 mM.
The test system of the next test is Canavalia ensiformis. Description: Inhibition of jack bean alpha-mannosidase assessed as p-nitrophenylglycoside substrate hydrolysis at 1 mM.

Calls of active or inactive are those of the source. No cut-off for these calls is given here.

The term Ki denotes the dissociation constant of the complex between target and ligand, obtained from inhibition or displacement. In general, inhibition refers to how much of the control response was suppressed. On to `O[C@H]1[C@@H](O)CN[C@@H]1CNCc1ccco1`, for which the Ki in test [1] was 136 µM; at Alpha-mannosidase 2 it was 292 µM. For the same compound, the inhibition in the test on Prunus dulcis is 29%; in the test with Canavalia ensiformis, 49%.
For `O[C@H]1[C@@H](O)CN[C@@H]1CN[C@@H](COCOc1ccc(Br)cc1)c1ccccc1`, the inhibitory constant (Ki) in test [1] amounted to 0.31 µM; at Alpha-mannosidase 2, 15.5 µM. Besides, in the test with Canavalia ensiformis, the inhibition is 92%.
`NC[C@H]1NC[C@H](O)[C@@H]1O`: the values for the inhibition constant Ki (in test [1]; on Alpha-mannosidase 2) were 1.59 µM and 1310 µM, respectively. Also, the inhibition in the test with Prunus dulcis stood at 51%; in the test with Canavalia ensiformis it was 81%.
On to `O[C@H]1[C@@H](O)CN[C@@H]1CN[C@@H](COCOc1ccccc1F)c1ccccc1`, for which the inhibitory constant (Ki) in test [1] stood at 0.91 µM; at Alpha-mannosidase 2, 11.3 µM. Also, in the test on Canavalia ensiformis, the inhibition was 83%.
`O[C@@H]1CNC[C@@H]1O`: the Ki in test [1] turned out to be 3.24 µM; on Alpha-mannosidase 2 it was 531 µM. Also, the results for the inhibition in the test with Prunus dulcis and in the test on Canavalia ensiformis were 40% and 70%, respectively.
Consider `O=C(NC[C@H](NC[C@H]1NC[C@H](O)[C@@H]1O)c1ccccc1)c1ccccc1Br`, for which the figures for the inhibitory constant (Ki) (in test [1]; on Alpha-mannosidase 2) were 0.16 µM and 4.35 µM, respectively. Moreover, the inhibition in the test on Canavalia ensiformis turned out to be 89%.
For `O[C@H]1[C@@H](O)CN[C@@H]1CNCC1CCN(Cc2ccccc2)CC1`, the Ki was 13.1 µM in test [1] and 43.2 µM on Alpha-mannosidase 2. Also, the inhibition with Prunus dulcis stood at 59%; in the test on Canavalia ensiformis, 55%.
The like results for `CC(NC[C@H]1NC[C@H](O)[C@@H]1O)c1ccccc1` (stereo partly specified) were, in that order, 28.1 µM, 82.3 µM, 48% and 66%.
For `CC(NC[C@H]1NC[C@H](O)[C@@H]1O)C(O)(c1ccccc1)c1ccccc1` (stereo partly specified) the same measures were 27.1 µM, 80.8 µM, “inactive” and “inactive”.
Turning to `O[C@H]1[C@@H](O)CN[C@@H]1CNCc1ccccc1`, the Ki was determined as 35 µM in test [1] and 152 µM on Alpha-mannosidase 2. For the same compound, the inhibition with Canavalia ensiformis came out at 92%.
As for `O[C@H]1[C@@H](O)CN[C@@H]1CNCc1cccs1`, the values for the inhibition constant (Ki) (in test [1]; on Alpha-mannosidase 2) were 77.7 µM and 233 µM, respectively. In addition, the inhibition in the test on Prunus dulcis was determined as 68%; in the test on Canavalia ensiformis, 89%.
In the case of `OCC(O)[C@H]1NC[C@H](O)[C@@H]1O` (stereo partly specified), the Ki in test [1] was determined as 169 µM; on Alpha-mannosidase 2, 229 µM. Besides, the inhibition result in the test with Prunus dulcis and in the test with Canavalia ensiformis was “inactive” throughout.
For `O[C@H]1[C@@H](O)CN[C@@H]1CN[C@@H](COCc1ccccc1)c1ccccc1`, the Ki in test [1] amounted to 0.23 µM; at Alpha-mannosidase 2, 68.3 µM. Moreover, the inhibition in the test on Prunus dulcis worked out at 75%; in the test with Canavalia ensiformis, 92%.
In the case of `O[C@H]1[C@@H](O)CN[C@@H]1CN[C@@H](COCOc1ccc(F)cc1)c1ccccc1`, the inhibition constant Ki is 0.44 µM in test [1] and 6.47 µM at Alpha-mannosidase 2. Also, in the test on Canavalia ensiformis, the inhibition was determined as 92%.
In the case of `C[C@H](O)NC[C@H]1NC[C@H](O)[C@@H]1O`, the Ki was 488 µM in test [1] and 683 µM at Alpha-mannosidase 2. Moreover, the inhibition was 45% with Prunus dulcis and 66% in the test with Canavalia ensiformis.
For `O[C@H]1[C@@H](O)CN[C@@H]1CN[C@@H](c1ccccc1)[C@H](O)c1ccccc1` the same measures were 2.62 µM, 25.9 µM, 50% and 84%.
Take `O[C@H]1[C@@H](O)CN[C@@H]1CN[C@@H](COCOc1cccc(Br)c1)c1ccccc1`: the figures for the Ki (in test [1]; on Alpha-mannosidase 2) were 0.31 µM and 12.8 µM, respectively. Further, the inhibition with Canavalia ensiformis is 79%.
Take `O[C@H]1[C@@H](O)CN[C@@H]1CNCn1ccnc1`: the Ki in test [1] stood at 326 µM; at Alpha-mannosidase 2 it was 568 µM. Also, the inhibition is 59% with Prunus dulcis and 55% in the test with Canavalia ensiformis.
The like results for `COC[C@H](NC[C@H]1NC[C@H](O)[C@@H]1O)c1ccccc1` were, in that order, 12.1 µM, 36 µM, 63% and 77%.
For `O[C@H]1[C@@H](O)CN[C@@H]1CNC1CCCC1` the same measures were 66.9 µM, 333 µM, 53% and 60%.
For `O[C@H]1[C@@H](O)CN[C@@H]1CN[C@@H](COCc1cccc(F)c1)c1ccccc1`, the Ki came to 0.76 µM in test [1] and 9.14 µM on Alpha-mannosidase 2. For the same compound, the inhibition in the test with Canavalia ensiformis came out at 99%.
For the compound `O[C@H]1[C@@H](O)CN[C@@H]1CCNc1ccccc1`, the results for the inhibition constant Ki (in test [1]; at Alpha-mannosidase 2) were 74.3 µM and 123 µM, respectively. Further, in the test on Prunus dulcis, the inhibition result was “inactive”. The inhibition with Canavalia ensiformis was 33%.
For `OC(O)C[C@H]1NC[C@H](O)[C@@H]1O`, the inhibition constant (Ki) in test [1] was 287 µM; at Alpha-mannosidase 2, 438 µM. In the test with Canavalia ensiformis, the inhibition amounted to 81%.
`O[C@H]1[C@@H](O)CN[C@@H]1CN[C@H](c1ccccc1)[C@@H](O)c1ccccc1`: the inhibition constant Ki in test [1] amounted to 0.79 µM; on Alpha-mannosidase 2, 7.77 µM. Moreover, the inhibition in the test on Prunus dulcis was 55%; in the test with Canavalia ensiformis, 88%.
For `C[C@@H](O)NC[C@H]1NC[C@H](O)[C@@H]1O` the same measures were 918 µM, 450 µM, 39% and 75%.
For `CC(=O)N(CNC[C@H]1NC[C@H](O)[C@@H]1O)Cc1ccccc1` the same measures were 44.8 µM, 64.9 µM, “inactive” and “inactive”.
The like results for `OC[C@@H](NC[C@H]1NC[C@H](O)[C@@H]1O)c1ccccc1` were, in that order, 12 µM, 29.9 µM, 55% and 92%.
For `OC[C@H](NC[C@H]1NC[C@H](O)[C@@H]1O)c1ccccc1`, the values for the Ki (in test [1]; on Alpha-mannosidase 2) were 16.8 µM and 26.9 µM, respectively. Also, the inhibition in the test with Prunus dulcis was 93%.
Regarding `OC[C@H]1NC[C@H](O)[C@@H]1O` [IMINORIBITOL], the results for the Ki (in test [1]; on Alpha-mannosidase 2) were 1.26 µM and 1430 µM, respectively. For the same compound, the inhibition with Prunus dulcis was determined as 37%; with Canavalia ensiformis it was 54%.
Turning to `OC[C@H](NC[C@H]1N[C@H](CO)[C@H](O)[C@@H]1O)c1ccccc1`, the Ki was 24.6 µM in test [1] and 11.8 µM at Alpha-mannosidase 2. The inhibition with Prunus dulcis came to 96%; in the test on Canavalia ensiformis it was 98%.
